Experimental data from patent US8846730B2, “Compounds as cannabinoid receptor ligands” (priority 2008, dated 2014).
Read-outs that look alike come from different tables or passages of the source.

Key:
[1] = biological target: human CB2 receptors (Homo sapiens (Human), UniProt P34972); test: human CB2 radioligand binding assay ([3H]CP 55,940 competition)
Experimental: (§1) The CB1 and CB2 radioligand binding assays described herein are utilized to ascertain the affinity of compounds of the present application for binding to CB2 relative to CB1 receptors.
HEK293 cells stably expressing human CB2 receptors were grown until a confluent monolayer was formed. Briefly, the cells were harvested and homogenized in TE buffer (50 mM Tris-HCl, 1 mM MgCl2, and 1 mM EDTA) using a polytron for 2×10 second bursts in the presence of protease inhibitors, followed by centrifugation at 45,000×g for 20 minutes. The final membrane pellet was re-homogenized in storage buffer (50 mM Tris-HCl, 1 mM MgCl2, and 1 mM EDTA and 10% sucrose) and frozen at −78° C. until used. Saturation binding reactions were initiated by the addition of membrane preparation (protein concentration of 5 μg/well for human CB2) into wells of a deep well plate containing [^3H]CP 55,940 (120 Ci/mmol, a nonselective CB agonist commercially available from Tocris) in assay buffer (50 mM Tris, 2.5 mM EDTA, 5 mM MgCl2, and 0.5 mg/mL fatty acid free BSA, pH 7.4). After 90 min incubation at 30° C., binding reaction was terminated by the addition of 300 μL/well of cold assay buffer followed by rapid vacuum filtration through a UniFilter-96 GF/C filter plates (pre-soaked in 1 mg/mL BSA for 2 hours). The bound activity was counted in a TopCount using Microscint-20. Saturation experiments were conducted with twelve concentrations of [^3H]CP 55,940 ranging from 0.01 to 8 nM. Competition experiments were conducted with 0.5 nM [^3H]CP 55,940 and five concentrations (0.01 nM to 10 μM) of displacing ligands. The addition of 10 μM unlabeled CP 55,940 (Tocris, Ellisville, Mo.) was used to assess nonspecific binding.

[2] = biological target: rat CB2 receptors (HEK cells) (Rattus norvegicus (Rat), UniProt Q9QZN9); test: rat CB2 cyclase functional assay (HitHunter cAMP); assay type: cell-based
Experimental: (§2) The cyclase functional assays were performed using the HitHunter™ cAMP assay kit from DiscoveRx (Fremont, Calif.) according to vendor's protocol. Briefly, HEK cells expressing CB2 or CB1 receptors (rat or human) were detached using cell dissociation buffer (Invitrogen, Carlsbad, Calif.), dispersed and placed in suspension at 10,000 cells per well in 96 well plates prior to the assay. Cell suspensions were incubated at 37° C. for 20 min with variable concentrations of test ligands and or 10 μM CP 55,940-positive control in the presence of a fixed concentration of forskolin (18 μM for rat CB2 and 37 μM for rat CB1) in Dulbescco's phosphate-buffered saline (Invitrogen, Carlsbad, Calif.) supplemented with bovine serum albumin (0.01% final concentration). The reactions were terminated by the addition of lysis buffer and the luminescence was detected following the procedure according to the manufacturer's instructions. EC50 values were calculated using sigmoidal dose-response curve fitting from Prism (GraphPad).

[3] = biological target: rat CB1 receptors (HEK cells) (Rattus norvegicus (Rat), UniProt P20272); test: rat CB1 cyclase functional assay (HitHunter cAMP); assay type: cell-based
rat CB1 receptors (HEK cells), sequence (P20272 whole entry): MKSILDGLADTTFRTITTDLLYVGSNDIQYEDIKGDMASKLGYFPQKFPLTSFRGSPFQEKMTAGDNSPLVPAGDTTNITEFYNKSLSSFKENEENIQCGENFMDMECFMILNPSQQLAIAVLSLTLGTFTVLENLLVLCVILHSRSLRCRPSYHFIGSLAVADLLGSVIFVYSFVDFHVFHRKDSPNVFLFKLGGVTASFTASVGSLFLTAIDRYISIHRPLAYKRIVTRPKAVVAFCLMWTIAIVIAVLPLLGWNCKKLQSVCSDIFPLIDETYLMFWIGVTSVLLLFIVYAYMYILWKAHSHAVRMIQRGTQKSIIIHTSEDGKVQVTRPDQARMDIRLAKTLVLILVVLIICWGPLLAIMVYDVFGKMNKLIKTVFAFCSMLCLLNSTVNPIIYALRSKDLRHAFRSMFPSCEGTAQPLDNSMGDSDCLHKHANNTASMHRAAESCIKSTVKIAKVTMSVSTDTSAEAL
Experimental: as §2

[4] = biological target: rat CB2 receptors (Rattus norvegicus (Rat), UniProt Q9QZN9); test: rat CB2 radioligand binding assay ([3H]CP 55,940 competition); conditions: HEK293 membranes, 0.5 nM [3H]CP 55,940
Experimental: as §1
HEK293 cells stably expressing rat CB2 receptors were grown until a confluent monolayer was formed. Briefly, the cells were harvested and homogenized in TE buffer (50 mM Tris-HCl, 1 mM MgCl2, and 1 mM EDTA) using a polytron for 2×10 second bursts in the presence of protease inhibitors, followed by centrifugation at 45,000×g for 20 minutes. The final membrane pellet was re-homogenized in storage buffer (50 mM Tris-HCl, 1 mM MgCl2, and 1 mM EDTA and 10% sucrose) and frozen at −78° C. until used. Saturation binding reactions were initiated by the addition of membrane preparation (protein concentration of 20 μg/well for rat CB2) into wells of a deep well plate containing [^3H]CP 55,940 (120 Ci/mmol, a nonselective CB agonist commercially available from Tocris) in assay buffer (50 mM Tris, 2.5 mM EDTA, 5 mM MgCl2, and 0.5 mg/mL fatty acid free BSA, pH 7.4). After 45 min incubation at 30° C., binding reaction was terminated by the addition of 300 μl/well of cold assay buffer followed by rapid vacuum filtration through a UniFilter-96 GF/C filter plates (pre-soaked in 1 mg/mL BSA for 2 hours). The bound activity was counted in a TopCount using Microscint-20. Saturation experiments were conducted with twelve concentrations of [^3H]CP 55,940 ranging from 0.01 to 8 nM. Competition experiments were conducted with 0.5 nM [^3H]CP 55,940 and five concentrations of displacing ligands selected from the range of 0.01 nM to 10 μM. The addition of 10 μM unlabeled CP 55,940 (Tocris, Ellisville, Mo.) was used to assess nonspecific binding.

[5] = HEK293 membranes, 0.5 nM [3H]CP 55,940, read-out: human CB2 (Ki)
[6] = HEK cells, forskolin 18 μM, read-out: rat CB2 cyclase (EC50)
[7] = HEK cells, forskolin 37 μM, read-out: rCB1 cyclase (EC50)

human CB2 receptors, sequence (P34972 whole entry): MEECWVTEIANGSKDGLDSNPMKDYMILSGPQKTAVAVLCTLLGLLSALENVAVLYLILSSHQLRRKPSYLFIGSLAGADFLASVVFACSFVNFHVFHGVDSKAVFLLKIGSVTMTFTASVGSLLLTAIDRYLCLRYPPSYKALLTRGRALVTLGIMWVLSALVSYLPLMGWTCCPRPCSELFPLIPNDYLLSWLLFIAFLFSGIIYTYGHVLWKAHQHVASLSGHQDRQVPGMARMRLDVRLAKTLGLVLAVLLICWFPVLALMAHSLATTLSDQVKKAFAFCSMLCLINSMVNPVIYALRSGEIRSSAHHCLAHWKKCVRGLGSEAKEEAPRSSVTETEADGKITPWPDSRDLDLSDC

Row | Structure (SMILES) | Ki [1, 5] | EC50 [2, 6] | EC50 [3] | Ki [4] | EC50 [2] | EC50 [3, 7] | Ki [1]
1 | CC(C)(C)c1cn(C[C@H]2CCCO2)/c(=N/C(=O)c2cc(C(F)(F)F)ccc2OCc2ccccc2)s1 [Example 36, 2-(benzyloxy)-N-[(2Z)-5-tert-butyl-3-[(2R)-tetrahydrofuran-2-ylmethyl]-1,3-thiazol-2(3H)-ylidene]-5-(trifluoromethyl)benzamide] | 6 nM | 1.47 nM | 6560 nM | 2.9 nM |  |  | 
2 | CN1CC[C@@H]1COc1ccc(C(F)(F)F)cc1C(=O)/N=c1\sc(C(C)(C)C)cn1C[C@H]1CCCO1 [Example 8, N-[(2Z)-5-tert-butyl-3-[(2R)-tetrahydrofuran-2-ylmethyl]-1,3-thiazol-2(3H)-ylidene]-2-{[(2R)-1-methylazetidin-2-yl]methoxy}-5-(trifluoromethyl)benzamide] | 47 nM | 0.35 nM | 3680 nM | 17 nM |  |  | 
3 | CC(C)(C)c1cn(C[C@@H]2CCCO2)/c(=N/C(=O)c2cc(C(F)(F)F)ccc2OC[C@H](N)CO)s1 [Example 33, 2-{[(2R)-2-amino-3-hydroxypropyl]oxy}-N-[(2Z)-5-tert-butyl-3-[(2S)-tetrahydrofuran-2-ylmethyl]-1,3-thiazol-2(3H)-ylidene]-5-(trifluoromethyl)benzamide] | 7.4 nM | 0.18 nM | 1170 nM | 2.8 nM |  |  | 
4 | Cn1ccnc1COc1ccc(C(F)(F)F)cc1C(=O)/N=c1\sc(C(C)(C)C)cn1C[C@H]1CCCO1 [Example 17, N-[(2Z)-5-tert-butyl-3-[(2R)-tetrahydrofuran-2-ylmethyl]-1,3-thiazol-2(3H)-ylidene]-2-[(1-methyl-1H-imidazol-2-yl)methoxy]-5-(trifluoromethyl)benzamide] | 53 nM | 2.75 nM | > 27000 nM | 15 nM |  |  | 
5 | CC(C)(C)c1cn(C[C@H]2CCCO2)/c(=N/C(=O)c2cc(C(F)(F)F)ccc2OCc2nccs2)s1 [Example 38, N-[(2Z)-5-tert-butyl-3-[(2R)-tetrahydrofuran-2-ylmethyl]-1,3-thiazol-2(3H)-ylidene]-2-(1,3-thiazol-2-ylmethoxy)-5-(trifluoromethyl)benzamide] | 5.5 nM |  | 2000 nM | 2.5 nM | 0.33 nM |  | 
6 | CC(COc1ccc(C(F)(F)F)cc1C(=O)/N=c1\sc(C(C)(C)C)cn1C[C@H]1CCCO1)=NO [Example 73, N-[(2Z)-5-tert-butyl-3-[(2R)-tetrahydrofuran-2-ylmethyl]-1,3-thiazol-2(3H)-ylidene]-2-{[2-(hydroxyimino)propyl]oxy}-5-(trifluoromethyl)benzamide] | 1.8 nM |  |  | 0.5 nM |  | 2320 nM | 
7 | CC(=NOc1ccc(C(F)(F)F)cc1C(=O)/N=c1\sc(C(C)(C)C)cn1C[C@H]1CCCO1)C(F)(F)F [Example 80, N-[(2Z)-5-tert-butyl-3-[(2R)-tetrahydrofuran-2-ylmethyl]-1,3-thiazol-2(3H)-ylidene]-5-(trifluoromethyl)-2-({[2,2,2-trifluoro-1-methylethylidene]amino}oxy)benzamide] | 4.4 nM |  | > 27000 nM | 4.8 nM |  |  | 
8 | CC(C)(C)NOc1ccc(C(F)(F)F)cc1C(=O)/N=c1\sc(C(C)(C)C)cn1C[C@H]1CCCO1 [Example 65, 2-[(tert-butylamino)oxy]-N-[(2Z)-5-tert-butyl-3-[(2R)-tetrahydrofuran-2-ylmethyl]-1,3-thiazol-2(3H)-ylidene]-5-(trifluoromethyl)benzamide] | 1.8 nM |  | > 27000 nM | 0.8 nM |  |  | 
9 | CC(C)(C)/C(COc1ccc(C(F)(F)F)cc1C(=O)/N=c1\sc(C(C)(C)C)cn1C[C@H]1CCCO1)=N/O [Example 70, N-[(2Z)-5-tert-butyl-3-[(2R)-tetrahydrofuran-2-ylmethyl]-1,3-thiazol-2(3H)-ylidene]-2-{[(2Z)-2-(hydroxyimino)-3,3-dimethylbutyl]oxy}-5-(trifluoromethyl)benzamide] | 12 nM |  | > 27000 nM | 8.1 nM |  |  | 
10 | CC(C)(C)C(=O)COc1ccc(C(F)(F)F)cc1C(=O)/N=c1\sc(C(C)(C)C)cn1C[C@H]1CCCO1 [Example 72, N-[(2Z)-5-tert-butyl-3-[(2R)-tetrahydrofuran-2-ylmethyl]-1,3-thiazol-2(3H)-ylidene]-2-(3,3-dimethyl-2-oxobutoxy)-5-(trifluoromethyl)benzamide] | 0.9 nM |  | > 27000 nM | 0.3 nM |  |  | 
11 | CC(C)(C)NNc1ccc(C(F)(F)F)cc1C(=O)/N=c1\sc(C(C)(C)C)cn1C[C@H]1CCCO1 [Example 39, 2-(2-tert-butylhydrazino)-N-[(2Z)-5-tert-butyl-3-[(2R)-tetrahydrofuran-2-ylmethyl]-1,3-thiazol-2(3H)-ylidene]-5-(trifluoromethyl)benzamide] | 3.7 nM |  |  | 1.7 nM |  | > 27000 nM | 
12 | CC(C)(C)/C(COc1ccc(C(F)(F)F)cc1C(=O)/N=c1\sc(C(C)(C)C)cn1C[C@H]1CCCO1)=N\O [Example 71, N-[(2Z)-5-tert-butyl-3-[(2R)-tetrahydrofuran-2-ylmethyl]-1,3-thiazol-2(3H)-ylidene]-2-{[(2E)-2-(hydroxyimino)-3,3-dimethylbutyl]oxy}-5-(trifluoromethyl)benzamide] | 5.4 nM |  | > 27000 nM | 4.1 nM |  |  | 
13 | Cn1cncc1COc1ccc(C(F)(F)F)cc1C(=O)/N=c1\sc(C(C)(C)C)cn1C[C@H]1CCCO1 [Example 67, N-[(2Z)-5-tert-butyl-3-[(2R)-tetrahydrofuran-2-ylmethyl]-1,3-thiazol-2(3H)-ylidene]-2-[(1-methyl-1H-imidazol-5-yl)methoxy]-5-(trifluoromethyl)benzamide] | 115 nM |  |  | 13 nM |  | > 27000 nM | 
14 | CC(=O)NOc1ccc(C(F)(F)F)cc1C(=O)/N=c1\sc(C(C)(C)C)cn1C[C@H]1CCCO1 [Example 75, 2-[(acetylamino)oxy]-N-[(2Z)-5-tert-butyl-3-[(2R)-tetrahydrofuran-2-ylmethyl]-1,3-thiazol-2(3H)-ylidene]-5-(trifluoromethyl)benzamide] | 1.2 nM |  |  | 2.5 nM |  |  | 
15 | CN1CCC[C@H]1COc1ccc(C(F)(F)F)cc1C(=O)/N=c1\scc(C(C)(C)C)n1C[C@H]1CCCO1 [Example 57, N-[(2Z)-4-tert-butyl-3-[(2R)-tetrahydrofuran-2-ylmethyl]-1,3-thiazol-2(3H)-ylidene]-2-{[(2S)-1-methylpyrrolidin-2-yl]methoxy}-5-(trifluoromethyl)benzamide] | 289 nM |  |  | 15 nM |  |  | 
16 | CC(C)(C)OC(=O)NNc1ccc(C(F)(F)F)cc1C(=O)/N=c1\sc(C(C)(C)C)cn1C[C@H]1CCCO1 [Example 40, tert-butyl 2-[2-({[(2Z)-5-tert-butyl-3-[(2R)-tetrahydrofuran-2-ylmethyl]-1,3-thiazol-2(3H)-ylidene]amino}carbonyl)-4-(trifluoromethyl)phenyl]hydrazinecarboxylate] |  |  |  | 0.3 nM |  |  | 0.4 nM
